For data set [1], the system named is Glomerella lagenarium (Colletotrichum lagenarium). As to the kind of experiment: Glomerella lagenarium (Colletotrichum lagenarium) / liquid culture (anthracnose). In kind it is cell-based. The following applies: Colletotrichum orbiculare, PDB, 24° C., 3-4 days after application, read-out: control of Glomerella lagenarium (inhibition of growth, photometric). In short, it runs like this:
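Test compound, delivered in DMSO at an application rate of 200 ppm, was combined with spore-containing PDB. Photometric growth-inhibition measurement followed 3-4 days of incubation at 24° C.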

Data set [2] deals with Thanatephorus cucumeris (Rhizoctonia solani). As to the kind of experiment: Thanatephorus cucumeris (Rhizoctonia solani) / liquid culture (foot rot, damping-off). In kind it is cell-based. The following applies: PDB, 24° C., 3-4 days after application, read-out: control of Thanatephorus cucumeris (inhibition of growth, photometric). In short, it runs like this:
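At 200 ppm, compounds in DMSO were combined with fresh liquid-culture mycelia in PDB and kept at 24° C; photometric measurement of growth inhibition after 3-4 days.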

Data set [3] concerns Fusarium culmorum. Put plainly: microbe, parasite or virus in culture. The following applies: read-out: control of Fusarium culmorum (inhibition of growth, photometric). In kind it is cell-based.
Data set [4] concerns Mycosphaerella arachidis (Cercospora arachidicola). Put plainly: Mycosphaerella arachidis (Cercospora arachidicola) / liquid culture (early leaf spot). In kind it is cell-based. Conditions: PDB, 24° C., 4-5 days after application, read-out: control of Mycosphaerella arachidis (inhibition of growth, photometric). In short, it runs like this:
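Conidia suspended in potato dextrose broth and added to test compound from DMSO solution at 200 ppm. Incubated at 24 °C; growth inhibition read photometrically 4-5 days after application.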

Data set [5] concerns Mycosphaerella graminicola (Septoria tritici). Put plainly: Mycosphaerella graminicola (Septoria tritici) / liquid culture (Septoria blotch). In kind it is cell-based. The following applies: Zymoseptoria tritici, PDB, 24° C., 4-5 days after application, read-out: control of Mycosphaerella graminicola (inhibition of growth, photometric). The essentials:
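Growth inhibition was read photometrically after 4–5 days at 24 °C. The test compound was applied at 200 ppm from DMSO solution, then PDB broth seeded with conidia taken straight from cryogenic storage was added.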

For data set [6], the system named is Puccinia recondita f. sp. Tritici. Put plainly: Puccinia recondita f. sp. tritici / wheat / leaf disc preventative (brown rust). The data set is classed as in vivo. Conditions: foliar, wheat leaf segments cv Kanzler, inoculated 1 day after application, assessed 7-9 days after application, read-out: control of Puccinia recondita f. sp. Tritici (percent disease control compared to untreated). In short, it runs like this:
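Preventative test: percent disease control relative to untreated leaf segments was assessed 7-9 days post-application. Wheat (cv Kanzler) leaf discs were treated at 200 ppm and spore-inoculated 1 day afterwards. Discs were held at 19° C and 75% relative humidity under a 12/12 h light cycle.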

For data set [7], the system named is Monographella nivalis (Microdochium nivale). Put plainly: Monographella nivalis (Microdochium nivale) / liquid culture (foot rot cereals). The data set is classed as cell-based. The following applies: PDB, 24° C., 4-5 days after application, read-out: control of Monographella nivalis (inhibition of growth, photometric). The essentials: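 Cryostored conidia in potato dextrose broth were added to test compound dispensed from DMSO at 200 ppm. Plates were kept at 24° C, and growth inhibition was read photometrically 4-5 days after application.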

For data set [8], the system named is Gaeumannomyces graminis. Put plainly: Gaeumannomyces graminis / liquid culture (take-all of cereals). The data set is classed as cell-based. Conditions: PDB, 24° C., 4-5 days after application, read-out: control of Gaeumannomyces graminis (inhibition of growth, photometric). In short, it runs like this: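 Growth inhibition, measured by photometry 4-5 days post-application at 24 °C, of fungal mycelial fragments in PDB broth. Test compound applied as DMSO solution at 200 ppm.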

The test system of data set [9] is Phaeosphaeria nodorum (Septoria nodorum). As to the kind of experiment: Phaeosphaeria nodorum (Septoria nodorum) / wheat / leaf disc preventative (glume blotch). In kind it is in vivo. Conditions: Parastagonospora nodorum, foliar, wheat leaf segments cv Kanzler, inoculated 2 days after application, assessed 5-7 days after application, read-out: control of Phaeosphaeria nodorum (percent disease control compared to untreated). The essentials: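 Wheat leaf segments (cv Kanzler) on agar sprayed with compound at 200 ppm, inoculated with spores 2 days later. Incubated at 20° C., 75% relative humidity, 12/12 h light/dark; percent disease control versus untreated scored 5-7 days after application.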

For data set [10], the system named is Botryotinia fuckeliana (Botrytis cinerea). Put plainly: Botryotinia fuckeliana (Botrytis cinerea) / liquid culture (gray mould). The data set is classed as cell-based. The following applies: Vogels broth, 24° C., 3-4 days after application, read-out: control of Botryotinia fuckeliana (inhibition of growth, photometric). The essentials: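 Test compound was applied at 200 ppm in DMSO, then Vogels nutrient broth containing cryo-stored B. cinerea conidia was added. Photometric growth-inhibition reading followed after 3-4 days at 24 °C.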

In data set [11] the test system is Sclerotinia sclerotiorum. Put plainly: Sclerotinia sclerotiorum liquid culture (cottony rot / white mold). The following applies: PDB, 24° C., 3-4 days after application, read-out: control of Sclerotinia sclerotiorum (inhibition of growth, photometric). In kind it is cell-based. The essentials: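 Mycelia fragments of Sclerotinia sclerotiorum in potato dextrose broth were added to compound in DMSO. Cultures incubated at 24° C; growth inhibition determined photometrically 3-4 days after application.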

The subject of data set [12] is Pyrenophora teres. As to the kind of experiment: Pyrenophora teres / barley / leaf disc preventative (net blotch). In kind it is in vivo. The following applies: foliar, barley leaf segments cv Hasso, inoculated two days after application, assessed 5-7 days after application, read-out: control of Pyrenophora teres (disease control compared to untreated). The essentials:
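Preventative leaf-disc test: 200 ppm spray, then spore inoculation after two days on barley cv Hasso segments. Incubation 20 °C, 65% relative humidity, 12 h light/12 h dark; efficacy rated against untreated checks at 5-7 days post-application.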

The test system of data set [13] is Pythium ultimum. As to the kind of experiment: Pythium ultimum / liquid culture (seedling damping off). In kind it is cell-based. The following applies: Globisporangium ultimum, potato dextrose broth, 24° C., 2-3 days after application, read-out: control of Pythium ultimum (inhibition of growth, photometric). The procedure:
Pythium ultimum/Liquid Culture (Seedling Damping Off) Mycelia fragments and oospores of a newly grown liquid culture of the fungus were directly mixed into nutrient broth (potato dextrose broth). After placing a DMSO solution of test compound into a 96-well format microtiter plate at an application rate of 200 ppm, the nutrient broth containing the fungal mycelia/spore mixture was added. The test plates were incubated at 24° C. and the inhibition of growth was determined photometrically 2-3 days after application.

For data set [14], the system named is Plasmopara viticola. As to the kind of experiment: Plasmopara viticola / grape / leaf disc preventative. In kind it is in vivo. Conditions: foliar, grape vine leaf disks, inoculated 1 day after application, assessed 6-8 days after application, read-out: control of Plasmopara viticola (percent disease control compared to untreated).

The structures appear in SMILES notation. Some results are limits rather than exact numbers.

Compound `CCn1c(-n2ncnc2N)nc2cncc(Br)c21` [Compound 15, 2-(7-bromo-1-ethylimidazo[4,5-c]pyridin-2-yl)-1,2,4-triazol-3-amine] yielded a melting point of 231 to 232 °C. Further, the inhibition at 20 ppm in data set [1] is not below 80%. Moreover, the inhibition at 20 ppm in data set [2] was not below 80%. In addition, in data set [3], the inhibition at 20 ppm is not below 80%. The inhibition at 20 ppm in data set [4] is not below 80%. Further, the inhibition at 20 ppm in data set [5] was not below 80%. The pest or weed control at 200 ppm in data set [6] was not below 80%. In [7], the inhibition at 20 ppm was not below 80%. Besides, in data set [8], the inhibition at 20 ppm is not below 80%. Also, the pest or weed control at 200 ppm in data set [9] was not below 80%. In data set [10], the inhibition at 20 ppm is not below 80%. Besides, the inhibition at 20 ppm in data set [11] is not below 80%. Further, the pest or weed control at 200 ppm in data set [12] is not below 80%.

In turn, `C=C(OCC)c1cncc2nc(-n3ncnc3N)n(CC)c12` [Compound 74, 2-[7-(1-ethoxyethenyl)-1-ethylimidazo[4,5-c]pyridin-2-yl]-1,2,4-triazol-3-amine] gave a melting point of 193 to 195 °C. Besides, the inhibition at 20 ppm in data set [1] is not below 80%. Besides, in [2], the inhibition at 20 ppm was not below 80%. Moreover, the inhibition at 20 ppm in [3] is not below 80%. Moreover, in data set [4], the inhibition at 20 ppm is not below 80%. The inhibition at 20 ppm in [5] is not below 80%. Besides, the pest or weed control at 200 ppm in [6] was not below 80%. Further, the inhibition at 20 ppm in data set [7] was not below 80%. For the same compound, the inhibition at 20 ppm in [8] is not below 80%. Moreover, in data set [9], the pest or weed control at 200 ppm is not below 80%. Moreover, the inhibition at 20 ppm in [10] is not below 80%. Also, the inhibition at 20 ppm in [11] is not below 80%. The pest or weed control at 200 ppm in data set [12] is not below 80%.

Take `CCn1c(-n2ncnc2N)nc2cncc(-c3ccc(OC)cc3F)c21` [Compound 96, 2-[1-ethyl-7-(2-fluoro-4-methoxyphenyl)imidazo[4,5-c]pyridin-2-yl]-1,2,4-triazol-3-amine]: the inhibition at 20 ppm in data set [1], in data set [13], in data set [2], in data set [3], in [5] and in data set [7] was not below 80% throughout. Further, the inhibition at 20 ppm in data set [8], in data set [10] and in data set [11] was not below 80% each time. The pest or weed control at 200 ppm in data set [6], in data set [9] and in data set [12] was not below 80% each time.

`CCn1c(-n2ncnc2N)nc2cncc(-c3ccc(F)cc3Cl)c21` [Compound 101, 2-[7-(2-chloro-4-fluorophenyl)-1-ethylimidazo[4,5-c]pyridin-2-yl]-1,2,4-triazol-3-amine]: the inhibition at 20 ppm in data set [1], in [13], in data set [2], in data set [3], in data set [4] and in data set [5] was not below 80% each time. In addition, the inhibition at 20 ppm in data set [7], in [8], in [10] and in data set [11] was not below 80% each time. The pest or weed control at 200 ppm in [6], in data set [9] and in data set [12] was not below 80% each time.

For the compound `C=Cc1cncc2nc(-n3ncnc3N)n(CC)c12` [Compound 106, 2-(7-ethenyl-1-ethylimidazo[4,5-c]pyridin-2-yl)-1,2,4-triazol-3-amine], the melting point was in the range of 178 to 186 °C. Also, the inhibition at 20 ppm in data set [13] was not below 80%. Also, in data set [2], the inhibition at 20 ppm was not below 80%. The inhibition at 20 ppm in data set [3] was not below 80%. Moreover, the inhibition at 20 ppm in data set [4] was not below 80%. For the same compound, in data set [5], the inhibition at 20 ppm is not below 80%. Besides, the inhibition at 20 ppm in data set [7] was not below 80%. Besides, the inhibition at 20 ppm in data set [8] is not below 80%. In addition, the inhibition at 20 ppm in data set [10] is not below 80%. The inhibition at 20 ppm in data set [11] is not below 80%. Also, the pest or weed control at 200 ppm in data set [12] was not below 80%.

Take `CCn1c(-n2ncnc2N)nc2cncc(C#CC3CC3)c21` [Compound 123, 2-[7-(2-cyclopropylethynyl)-1-ethylimidazo[4,5-c]pyridin-2-yl]-1,2,4-triazol-3-amine]: the melting point is 188 to 192 °C. Moreover, the inhibition at 20 ppm in data set [1] was not below 80%. Also, the inhibition at 20 ppm in [2] was not below 80%. In addition, the inhibition at 20 ppm in data set [3] was not below 80%. The inhibition at 20 ppm in data set [4] is not below 80%. In addition, in data set [5], the inhibition at 20 ppm was not below 80%. Moreover, the pest or weed control at 200 ppm in data set [6] is not below 80%. The inhibition at 20 ppm in data set [7] is not below 80%. Further, the inhibition at 20 ppm in data set [8] was not below 80%. For the same compound, the pest or weed control at 200 ppm in [9] is not below 80%. In data set [10], the inhibition at 20 ppm is not below 80%. For the same compound, the inhibition at 20 ppm in data set [11] was not below 80%. Further, the pest or weed control at 200 ppm in data set [12] was not below 80%.

As to `C=C(C)CO/N=C(/C)c1cncc2nc(-n3ncnc3N)n(CC)c12` [Compound 178], the pest or weed control at 200 ppm in data set [14], in data set [6] and in data set [12] was not below 80% throughout. Moreover, the inhibition at 20 ppm in data set [2], in [3], in [4], in data set [5], in data set [7] and in [8] was not below 80% in each case. The inhibition at 20 ppm in data set [10] and in data set [11] was not below 80% in each case.

For the compound `CCCn1c(-n2ncnc2N)nc2cncc(/C(C)=N\OC/C=C/Cl)c21` [Compound 182], the pest or weed control at 200 ppm in data set [14], in [6], in data set [9] and in data set [12] was not below 80% each time. In addition, the inhibition at 20 ppm in data set [2], in data set [3], in data set [4], in data set [5], in data set [7] and in data set [10] was not below 80% throughout. In addition, the inhibition at 20 ppm in [11] is not below 80%.

For `CCCn1c(-n2ncnc2N)nc2cncc(/C(C)=N\OC/C=C(\C)Cl)c21` [Compound 184], the pest or weed control at 200 ppm in [14], in data set [6], in data set [9] and in data set [12] was not below 80% each time. Also, the inhibition at 20 ppm in [2], in data set [3], in data set [4], in data set [5], in data set [7] and in data set [8] was not below 80% in each case. Also, the inhibition at 20 ppm in data set [10] and in data set [11] was not below 80% throughout.

Values taken from patent publication US9512120B2, “Microbicidally active imidazopyridine derivatives” (Syngenta Participations AG, priority 2013, dated 2016).
